# Results as given in patent US9546153B2, “Bicyclic heterocycle substituted pyridyl compounds useful as kinase modulators” (BRISTOL-MYERS SQUIBB COMPANY, priority 2012, dated 2017).
# Where two headings read alike, the source gives them in different places.
# Experiments:
# [1] = target: IRAK4 (Homo sapiens (Human), UniProt Q9NWZ3); assay: IRAK4 Inhibition Assay; assay type: biochemical; conditions: ATP 500 μM; IRAK4 0.6 nM; 60 min at room temperature
# Method: The assays were performed in U-bottom 384-well plates. […] The reaction was initiated by the combination of IRAK4 with substrates and test compounds. The reaction was incubated at room temperature for 60 min. and terminated by adding 45 μL of 35 mM EDTA to each sample. The reaction mixture was analyzed on the Caliper LABCHIP® 3000 (Caliper, Hopkinton, Mass.) by electrophoretic separation of the fluorescent substrate and phosphorylated product.
# [2] = test system: TLR2 induced IL-6 in peripheral blood mononuclear cells (PBMCs); assay: PBMC TLR2 Induced IL-6 Assay; assay type: cell-based, human; conditions: read-out: Cell IC50
# Outline: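 Human PBMCs (250000 cells/well) in RPMI with 10% heat-inactivated FCS pre-treated with compound for 30 min at 37° C, then stimulated 5 h with 10 μg/ml lipoteichoic acid. Supernatant IL-6 measured by ELISA and reported as IC50 or EC50.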
# [3] = Homo sapiens, PBMC, 5 h, human PBMCs, 10 μg/ml lipoteichoic acid for 5 hours, IL-6 by ELISA, value without asterisk
# [4] = human PBMCs, 10 μg/ml lipoteichoic acid for 5 hours, IL-6 by ELISA, value without asterisk
# Sequence of IRAK4 (Q9NWZ3 whole entry, species assumed): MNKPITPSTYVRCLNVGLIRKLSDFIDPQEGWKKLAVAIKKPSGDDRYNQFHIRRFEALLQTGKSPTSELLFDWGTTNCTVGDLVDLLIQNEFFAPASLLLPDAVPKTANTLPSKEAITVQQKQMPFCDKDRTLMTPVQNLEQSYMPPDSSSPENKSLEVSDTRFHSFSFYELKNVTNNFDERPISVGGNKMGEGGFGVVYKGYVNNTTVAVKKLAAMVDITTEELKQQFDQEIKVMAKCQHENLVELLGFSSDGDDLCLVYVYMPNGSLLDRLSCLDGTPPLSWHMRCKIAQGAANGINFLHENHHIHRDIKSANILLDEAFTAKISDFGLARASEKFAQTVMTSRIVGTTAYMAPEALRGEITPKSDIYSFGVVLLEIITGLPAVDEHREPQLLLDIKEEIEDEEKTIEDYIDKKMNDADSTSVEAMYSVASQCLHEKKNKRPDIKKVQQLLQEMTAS
IC50 [1] [nM],Compound,"IC50 [2, 3] [nM]","IC50 [2, 4] [nM]","IC50 ([2]; Homo sapiens, PBMC, 5 h) [nM]"
2.8,"CC1(O)CCC(NC(=O)c2cnc(Nc3ccc4ncsc4c3)cc2NC2CC2)CC1 (stereo not drawn) [Example 169, 6-(benzo[d]thiazol-6-ylamino)-4-(cyclopropylamino)-N-(4-hydroxy-4-methylcyclohexyl)nicotinamide]",480,,
5.9,CC(C)(O)C(F)(F)CNC(=O)c1cnc(Nc2ccc3ncsc3c2)cc1NC1CC1 [Example 170],477,,
4.3,CC(C)Nc1cc(Nc2ccc3ncsc3c2)ncc1C(=O)NCC(F)(F)C(C)(C)O [Example 171],571,,
6.7,CC(C)Nc1cc(Nc2ccc3ncsc3c2)ncc1C(=O)NC1CCCC(CO)C1 (stereo not drawn) [Example 172],,300,
9.3,CC(C)Nc1cc(Nc2ccc3ncsc3c2)ncc1C(=O)NC1CCCC(CO)C1 (stereo not drawn) [Example 173],,696,
5.1,CC(C)Nc1cc(Nc2ccc3ncsc3c2)ncc1C(=O)NCC[C@@H](C)NC(=O)OC(C)(C)C [Example 175],402,,
10.3,CC(C)Nc1cc(Nc2ccc3ncsc3c2)ncc1C(=O)NC12CCC(O)(CC1)C2 [Example 176],489,,
1.7,CC(C)NC(=O)N[C@H](C)CCNC(=O)c1cnc(Nc2ccc3ncsc3c2)cc1NC(C)C [Example 177],191,,
13.8,CC(=O)N[C@@H](C)CCNC(=O)c1cnc(Nc2ccc3ncsc3c2)cc1NC(C)C [Example 178],405,,
16.2,CC(C)Nc1cc(Nc2ccc3ncsc3c2)ncc1C(=O)NCC[C@H](C)NC(=O)CC(C)(C)O [Example 179],532,,
3.7,CC(=O)N[C@H](C)CCNC(=O)c1cnc(Nc2ccc3ncsc3c2)cc1NC(C)C [Example 180],415,,
7.6,CC(C)NC(=O)N[C@@H](C)CCNC(=O)c1cnc(Nc2ccc3ncsc3c2)cc1NC(C)C [Example 181],453,,
3.9,CC(C)Nc1cc(Nc2ccc3ncsc3c2)ncc1C(=O)NCC[C@@H](C)NC(=O)OC(C)C [Example 183],436,,
4.4,CC(C)Nc1cc(Nc2ccc3ncsc3c2)ncc1C(=O)NCC[C@@H](C)NC(=O)c1ccccc1 [Example 185],620,,
2.4,CC(C)Nc1cc(Nc2ccc3ncsc3c2)ncc1C(=O)NCC[C@@H](C)NC(=O)[C@@H]1CCC(F)(F)C1 [Example 186],361,,
2.7,CC(C)Nc1cc(Nc2ccc3ncsc3c2)ncc1C(=O)NCC[C@@H](C)NC(=O)[C@@H]1CC[C@@H](F)C1 [Example 187],324,,
2.5,CC(C)Nc1cc(Nc2ccc3ncsc3c2)ncc1C(=O)NCC[C@@H](C)NC(=O)CC1CCCCC1(F)F (stereo partly drawn) [Example 188],508,,
3.4,CC(C)Nc1cc(Nc2ccc3ncsc3c2)ncc1C(=O)NCC[C@@H](C)NC(=O)CC1CCOCC1 [Example 189],300,,
3.3,CC(C)Nc1cc(Nc2ccc3ncsc3c2)ncc1C(=O)NCC[C@@H](C)NC(=O)CCCC(C)(C)O [Example 190],250,,

IC50 [1] [nM],Compound,"IC50 [2, 3] [nM]","IC50 [2, 4] [nM]","IC50 ([2]; Homo sapiens, PBMC, 5 h) [nM]"
3.4,CC(C)Nc1cc(Nc2ccc3ncsc3c2)ncc1C(=O)NCC[C@@H](C)NC(=O)CCCCC(C)(C)O [Example 191],451,,
6.1,CC(C)Nc1cc(Nc2ccc3ncsc3c2)ncc1C(=O)NCC[C@@H](C)NC(=O)CN(C)C [Example 192],264,,
3.1,CC(C)Nc1cc(Nc2ccc3ncsc3c2)ncc1C(=O)NCC[C@@H](C)NC(=O)Cn1ccnn1 [Example 193],345,,
2.5,CC(C)Nc1cc(Nc2ccc3ncsc3c2)ncc1C(=O)NCC[C@@H](C)NC(=O)CC1CCCOC1 (stereo partly drawn) [Example 194],208,,
2,CC(C)Nc1cc(Nc2ccc3ncsc3c2)ncc1C(=O)N[C@H]1CC[C@H](C(=O)NC(C)C)CC1 [Example 195],162,,
3.5,CC(C)Nc1cc(Nc2ccc3ncsc3c2)ncc1C(=O)N[C@H]1CC[C@H](C(=O)NCC(C)(C)O)CC1 [Example 196],325,,
2.6,CC(C)Nc1cc(Nc2ccc3ncsc3c2)ncc1C(=O)NCC[C@@H](C)NC(=O)[C@@H]1CC[C@H](F)C1 [Example 198],307,,
8.4,CC(=O)NCCCNC(=O)c1cnc(Nc2ccc3ncsc3c2)cc1NC(C)C [Example 199],551,,
2.2,CC(=O)N[C@H]1CC[C@H](NC(=O)c2cnc(Nc3ccc4ncsc4c3)cc2NC(C)C)CC1 [Example 200],94,,
4.5,CC(C)Nc1cc(Nc2ccc3ncsc3c2)ncc1C(=O)N[C@H]1CC[C@H](NC(=O)c2ccccn2)CC1 [Example 201],499,,
2.4,CC(C)Nc1cc(Nc2ccc3ncsc3c2)ncc1C(=O)N[C@H]1CC[C@H](NC(=O)c2cccnc2)CC1 [Example 202],156,,
3.4,CC(C)Nc1cc(Nc2ccc3ncsc3c2)ncc1C(=O)N[C@H]1CC[C@H](N)CC1 [Example 203],307,,
2.6,CC(C)Nc1cc(Nc2ccc3ncsc3c2)ncc1C(=O)N[C@H]1CC[C@H](NS(C)(=O)=O)CC1 [Example 204],252,,
1.8,CC(C)Nc1cc(Nc2ccc3ncsc3c2)ncc1C(=O)N[C@H]1CC[C@H](NC(=O)N2CCOCC2)CC1 [Example 205],169,,
2.1,CC(C)NC(=O)N[C@H]1CC[C@H](NC(=O)c2cnc(Nc3ccc4ncsc4c3)cc2NC(C)C)CC1 [Example 206],139,,
1.7,CC(C)Nc1cc(Nc2ccc3ncsc3c2)ncc1C(=O)N[C@H]1CC[C@H](NC(=O)c2ccncc2)CC1 [Example 207],158,,
3.7,CC(C)Nc1cc(Nc2ccc3ncsc3c2)ncc1C(=O)NCC[C@@H](C)NC(=O)N(C)c1ccccc1 [Example 208],647,,
5.3,CC(=O)NCCCCNC(=O)c1cnc(Nc2ccc3ncsc3c2)cc1NC(C)C [Example 209],875,,
6.9,CC(C)Nc1cc(Nc2ccc3ncsc3c2)ncc1C(=O)NCC[C@@H](C)NC(=O)N1CCCC1 [Example 212],712,,

IC50 [1] [nM],Compound,"IC50 [2, 3] [nM]","IC50 [2, 4] [nM]","IC50 ([2]; Homo sapiens, PBMC, 5 h) [nM]"
3.1,CC(C)Nc1cc(Nc2ccc3ncsc3c2)ncc1C(=O)N[C@H]1CC[C@H](C(=O)NC2(C#N)CC2)CC1 [Example 213],403,,
6.7,CC(C)Nc1cc(Nc2ccc3ncsc3c2)ncc1C(=O)N[C@H]1CC[C@H](C(=O)NC23CC4CC(CC(O)(C4)C2)C3)CC1 [Example 214],371,,
3.5,CC(=O)N[C@H]1CC[C@@H](NC(=O)c2cnc(Nc3ccc4ncsc4c3)cc2NC(C)C)CC1 [Example 216],604,,
5,CC(C)Nc1cc(Nc2ccc3ncsc3c2)ncc1C(=O)NC1CCN(S(C)(=O)=O)CC1 [Example 217],560,,
7,CC(C)Nc1cc(Nc2ccc3ncsc3c2)ncc1C(=O)NC1CCN(C(=O)N2CCOCC2)CC1 [Example 218],471,,
4.8,CC(C)Nc1cc(Nc2ccc3ncsc3c2)ncc1C(=O)NC1CCN(C(=O)c2cccnc2)CC1 [Example 219],447,,
3.4,CC(C)Nc1cc(Nc2ccc3ncsc3c2)ncc1C(=O)N[C@H]1CC[C@H](C(=O)NC23CCC(O)(CC2)C3)CC1 [Example 220],328,,
10.5,CNC(=O)[C@H]1CC[C@H](NC(=O)c2cnc(Nc3ccc4ncsc4c3)cc2NC(C)C)C1 [Example 221],462,,
9.9,CC(C)Nc1cc(Nc2ccc3ncsc3c2)ncc1C(=O)N[C@H]1CC[C@H](C(=O)NC2(C#N)CC2)C1 [Example 222],692,,
4.2,CC(C)Nc1cc(Nc2ccc3ncsc3c2)ncc1C(=O)NC12CCC(N)(CC1)CC2 [Example 223],238,,
9.6,CC(C)Nc1cc(Nc2ccc3ncsc3c2)ncc1C(=O)NC12CCC(N)(CC1)C2 [Example 224],280,,
3.3,CCNC(=O)[C@H]1CC[C@H](NC(=O)c2cnc(Nc3ccc4ncsc4c3)cc2NC(C)C)CC1 [Example 225],535,,
3.4,CC(C)Nc1cc(Nc2ccc3ncsc3c2)ncc1C(=O)NC12CCC(C(=O)NCC(C)(C)O)(CC1)CC2 [Example 226],274,,
2.7,CC(C)Nc1cc(Nc2ccc3ncsc3c2)ncc1C(=O)N[C@H]1CC[C@H](C(=O)NC2CC2)CC1 [Example 227],138,,
2.4,CC(C)Nc1cc(Nc2ccc3ncsc3c2)ncc1C(=O)N[C@H]1CC[C@H](C(N)=O)CC1 [Example 228],392,,
3.4,CNC(=O)C12CCC(NC(=O)c3cnc(Nc4ccc5ncsc5c4)cc3NC(C)C)(CC1)CC2 [Example 229],488,,
5.1,CC(C)(O)[C@H](F)CNC(=O)c1cnc(Nc2ccc3ncsc3c2)cc1NC1CCOCC1F (stereo partly drawn) [Example 230],,274,
3.4,CC(C)(O)[C@H](F)CNC(=O)c1cnc(Nc2ccc3ncsc3c2)cc1NC1CCOCC1F (stereo partly drawn) [Example 231],,88,

Compound,IC50 [1] [nM],"IC50 [2, 3] [nM]","IC50 [2, 4] [nM]","IC50 ([2]; Homo sapiens, PBMC, 5 h) [nM]"
CC(C)Nc1cc(Nc2ccc3ncsc3c2)ncc1C(=O)NCC[C@@H](C)NC(=O)C1CCCC1 [Example 184],1.9,,,215
